Data from patent publication US8012956B2, “Tropane compounds” (Exelixis, Inc., priority 2007, dated 2011).

What follows are molecules tested against HSP90 (Homo sapiens, UniProt P07900) (assay: HSP90 inhibition (HSP90 IC50)).
Format: biochemical

| Structure (SMILES) | IC50 [nM] |
| --- | --- |
| CC(=O)c1ccc(N2[C@@H]3CC[C@H]2C[C@@H](NC(=O)c2ccc(C(N)=O)c(NC4CCOC4)c2)C3)nc1 (stereo partly drawn) [N4-[8-(5-acetylpyridin-2-yl)-8-azabicyclo[3.2.1]oct-3-endo-yl]-2-(tetrahydrofuran-3-ylamino)benzene-1,4-dicarboxamide] | < 500 |
| CC(=O)c1ccc(N2[C@@H]3CC[C@H]2C[C@@H](NC(=O)c2ccc(C(N)=O)c(NCCOC(C)C)c2)C3)nc1 [N4-[8-(5-acetylpyridin-2-yl)-8-azabicyclo[3.2.1]oct-3-endo-yl]-2-({2-[(1-methylethyl)oxy]ethyl}amino)benzene-1,4-dicarboxamide] | < 500 |
| CC(=O)c1ccc(N2[C@@H]3CC[C@H]2C[C@@H](NC(=O)c2ccc(C(N)=O)c(NCCCNC(C)C)c2)C3)nc1 [N4-[8-(5-acetylpyridin-2-yl)-8-azabicyclo[3.2.1]oct-3-endo-yl]-2-({3-[(1-methylethyl)amino]propyl}amino) benzene-1,4-dicarboxamide] | 500 to 999 |
| COc1ccc(Nc2cc(C(=O)N[C@H]3C[C@H]4CC[C@@H](C3)N4c3ccc(C(C)=O)cn3)ccc2C(N)=O)cc1OCCN1CCOCC1 [N4-[8-(5-acetylpyridin-2-yl)-8-azabicyclo[3.2.1]oct-3-endo-yl]-2-({4-(methyloxy)-3-[(2-morpholin-4-ylethyl)oxy]phenyl}amino)benzene-1,4-dicarboxamide] | < 500 |
| CC(=O)c1ccc(N2[C@@H]3CC[C@H]2C[C@@H](NC(=O)c2ccc(C(N)=O)c(NC(C)C(C)(C)C)c2)C3)nc1 (stereo partly drawn) [N4-[8-(5-acetylpyridin-2-yl)-8-azabicyclo[3.2.1]oct-3-endo-yl]-2-[(1,2,2-trimethylpropyl)amino]benzene-1,4-dicarboxamide] | < 500 |
| CC(=O)c1ccc(N2[C@@H]3CC[C@H]2C[C@@H](NC(=O)c2ccc(C(N)=O)c(NC(C)C(C)C)c2)C3)nc1 (stereo partly drawn) [N4-[8-(5-acetylpyridin-2-yl)-8-azabicyclo[3.2.1]oct-3-endo-yl]-2-[(1,2-dimethylpropyl)amino]benzene-1,4-dicarboxamide] | < 500 |
| CCN1CCC(Nc2cc(C(=O)N[C@H]3C[C@H]4CC[C@@H](C3)N4c3ccc(C(C)=O)cn3)ccc2C(N)=O)CC1 [N4-[8-(5-acetylpyridin-2-yl)-8-azabicyclo[3.2.1]oct-3-endo-yl]-2-[(1-ethylpiperidin-4-yl)amino]benzene-1,4-dicarboxamide] | 500 to 999 |
| CCC(CC)Nc1cc(C(=O)N[C@H]2C[C@H]3CC[C@@H](C2)N3c2ccc(C(C)=O)cn2)ccc1C(N)=O [N4-[8-(5-acetylpyridin-2-yl)-8-azabicyclo[3.2.1]oct-3-endo-yl]-2-[(1-ethylpropyl)amino]benzene-1,4-dicarboxamide] | < 500 |
| CC(=O)c1ccc(N2[C@@H]3CC[C@H]2C[C@@H](NC(=O)c2ccc(C(N)=O)c(NC(C)C)c2)C3)nc1 [N4-[8-(5-acetylpyridin-2-yl)-8-azabicyclo[3.2.1]oct-3-endo-yl]-2-[(1-methylethyl)amino]benzene-1,4-dicarboxamide] | < 500 |
| CCCC(CCC)Nc1cc(C(=O)N[C@H]2C[C@H]3CC[C@@H](C2)N3c2ccc(C(C)=O)cn2)ccc1C(N)=O [N4-[8-(5-acetylpyridin-2-yl)-8-azabicyclo[3.2.1]oct-3-endo-yl]-2-[(1-propylbutyl)amino]benzene-1,4-dicarboxamide] | < 500 |
| CC(=O)c1ccc(N2[C@@H]3CC[C@H]2C[C@@H](NC(=O)c2ccc(C(N)=O)c(NCC(F)(F)F)c2)C3)nc1 [N4-[8-(5-acetylpyridin-2-yl)-8-azabicyclo[3.2.1]oct-3-endo-yl]-2-[(2,2,2-trifluoroethyl)amino]benzene-1,4-dicarboxamide] | < 500 |
| CC(=O)c1ccc(N2[C@@H]3CC[C@H]2C[C@@H](NC(=O)c2ccc(C(N)=O)c(NCC(F)(F)C(F)(F)F)c2)C3)nc1 [N4-[8-(5-acetylpyridin-2-yl)-8-azabicyclo[3.2.1]oct-3-endo-yl]-2-[(2,2,3,3,3-pentafluoropropyl)amino]benzene-1,4-dicarboxamide] | < 500 |
| CC(=O)c1ccc(N2[C@@H]3CC[C@H]2C[C@@H](NC(=O)c2ccc(C(N)=O)c(NCC(F)(F)C(F)(F)C(F)(F)F)c2)C3)nc1 [N4-[8-(5-acetylpyridin-2-yl)-8-azabicyclo[3.2.1]oct-3-endo-yl]-2-[(2,2,3,3,4,4,4-heptafluorobutyl)amino]benzene-1,4-dicarboxamide] | 500 to 999 |
| CC(=O)c1ccc(N2C3CCC2CC(NC(=O)c2ccc(C(N)=O)c(NCCN)c2)C3)nc1 (stereo not drawn) [N4-[8-(5-acetylpyridin-2-yl)-8-azabicyclo[3.2.1]oct-3-endo-yl]-2-[(2-aminoethyl)amino]benzene-1,4-dicarboxamide] | < 500 |
| CC(=O)c1ccc(N2[C@@H]3CC[C@H]2C[C@@H](NC(=O)c2ccc(C(N)=O)c(NCC(C)C)c2)C3)nc1 [N4-[8-(5-acetylpyridin-2-yl)-8-azabicyclo[3.2.1]oct-3-endo-yl]-2-[(2-methylpropyl)amino]benzefle-1,4-dicarboxamide] | < 500 |
| CC(=O)c1ccc(N2[C@@H]3CC[C@H]2C[C@@H](NC(=O)c2ccc(C(N)=O)c(NCCC(F)(F)F)c2)C3)nc1 [N4-[8-(5-acetylpyridin-2-yl)-8-azabicyclo[3.2.1]oct-3-endo-yl]-2-[(3,3,3-trifluoropropyl)amino]benzene-1,4-dicarboxamide] | < 500 |

| Structure (SMILES) | IC50 [nM] |
| --- | --- |
| CC(=O)c1ccc(N2[C@@H]3CC[C@H]2C[C@@H](NC(=O)c2ccc(C(N)=O)c(Nc4cccc(OCCN(C)C)c4)c2)C3)nc1 [N4-[8-(5-acetylpyridin-2-yl)-8-azabicyclo[3.2.1]oct-3-endo-yl]-2-[(3-{[2-(dimethylamino)ethyl]oxy}phenyl)amino] benzene-1,4-dicarboxamide] | < 500 |
| CC(=O)c1ccc(N2C3CCC2CC(NC(=O)c2ccc(C(N)=O)c(N[C@@H]4CCOC4)c2)C3)nc1 (stereo partly drawn) [N4-[8-(5-acetylpyridin-2-yl)-8-azabicyclo[3.2.1]oct-3-endo-yl]-2-[(3R)-tetrahydrofuran-3-ylamino]benzene-1,4-dioarboxamide] | < 500 |
| CC(=O)c1ccc(N2C3CCC2CC(NC(=O)c2ccc(C(N)=O)c(N[C@H]4CCOC4)c2)C3)nc1 (stereo partly drawn) [N4-[8-(5-acetylpyridin-2-yl)-8-azabicyclo[3.2.1]oct-3-endo-yl]-2-[(3S)-tetrahydrofuran-3-ylamino]benzene-1,4-dicarboxamide] | < 500 |
| CC(=O)c1ccc(N2[C@@H]3CC[C@H]2C[C@@H](NC(=O)c2ccc(C(N)=O)c(NCC4CC4)c2)C3)nc1 [N4-[8-(5-acetylpyridin-2-yl)-8-azabicyclo[3.2.1]oct-3-endo-yl]-2-[(cyclopropylmethyl)amino]benzene-1,4-dicarboxamide] | < 500 |
| CC(=O)c1ccc(N2[C@@H]3CC[C@H]2C[C@@H](NC(=O)c2ccc(C(N)=O)c(NCc4ccccc4)c2)C3)nc1 [N4-[8-(5-acetylpyridin-2-yl)-8-azabicyclo[3.2.1]oct-3-endo-yl]-2-[(phenylmethyl)amino]benzene-1,4-dicarboxamide] | 500 to 999 |
| CC(=O)c1ccc(N2[C@@H]3CC[C@H]2C[C@@H](NC(=O)c2ccc(C(N)=O)c(NCC4CCNC4)c2)C3)nc1 (stereo partly drawn) [N4-[8-(5-acetylpyridin-2-yl)-8-azabicyclo[3.2.1]oct-3-endo-yl]-2-[(pyrrolidin-3-ylmethyl)amino]benzene-1,4-dicarboxamide] | < 500 |
| CC(=O)c1ccc(N2[C@@H]3CC[C@H]2C[C@@H](NC(=O)c2ccc(C(N)=O)c(NCC4CCCO4)c2)C3)nc1 (stereo partly drawn) [N4-[8-(5-acetylpyridin-2-yl)-8-azabicyclo[3.2.1]oct-3-endo-yl]-2-[(tetrahydrofuran-2-ylmethyl)amino]benzene-1,4-dicarboxamide] | < 500 |
| CC(=O)c1ccc(N2C3CCC2CC(NC(=O)c2ccc(C(N)=O)c(N[C@H]4CC[C@H](O)CC4)c2)C3)nc1 (stereo partly drawn) [N4-[8-(5-acetylpyridin-2-yl)-8-azabicyclo[3.2.1]oct-3-endo-yl]-2-[(trans-4-hydroxycyclohexyl)amino]benzene-1,4-dicarboxamide] | < 500 |
| CC(=O)c1ccc(N2[C@@H]3CC[C@H]2C[C@@H](NC(=O)c2ccc(C(N)=O)c(N)c2)C3)nc1 [N4-[8-(5-acetylpyridin-2-yl)-8-azabicyclo[3.2.1]oct-3-endo-yl]-2-aminobenzene-1,4-dicarboxamide] | 500 to 999 |
| CC(=O)c1ccc(N2[C@@H]3CC[C@H]2C[C@@H](NC(=O)c2ccc(C(N)=O)c(N4CCC4)c2)C3)nc1 [N4-[8-(5-acetylpyridin-2-yl)-8-azabicyclo[3.2.1]oct-3-endo-yl]-2-azetidin-1-ylbenzene-1,4-dicarboxamide] | 2000 to 10000 |
| CC(=O)c1ccc(N2[C@@H]3CC[C@H]2C[C@@H](NC(=O)c2ccc(C(N)=O)c(Br)c2)C3)nc1 [N4-[8-(5-acetylpyridin-2-yl)-8-azabicyclo[3.2.1]oct-3-endo-yl]-2-bromobenzene-1,4-dicarboxamide] | < 500 |
| COc1ccc(Nc2cc(C(=O)N[C@H]3C[C@H]4CC[C@@H](C3)N4c3ccc(C(C)=O)cn3)ccc2C(N)=O)cc1OCCN(C)C [N4-[8-(5-acetylpyridin-2-yl)-8-azabicyclo[3.2.1]oct-3-endo-yl]-2-{[3-{[2-(dimethylamino)ethyl]oxy}-4-(methyloxy)phenyl]amino}benzene-1,4-dicarboxamide] | < 500 |
| CC[C@H](C)Nc1cc(C(=O)NC2CC3CCC(C2)N3c2ccc(C(C)=O)cn2)ccc1C(N)=O (stereo partly drawn) [N4-[8-(5-acetylpyridin-2-yl)-8-azabicyclo[3.2.1]oct-3-endo-yl]-2-{[(1S)-1-methylpropyl]amino}benzene-1,4-dicarboxamide] | < 500 |
| CC(=O)c1ccc(N2[C@@H]3CC[C@H]2C[C@@H](NC(=O)c2ccc(C(N)=O)c(NC4CCNC4)c2)C3)nc1 (stereo partly drawn) [N4-[8-(5-acetylpyridin-2-yl)-8-azabicyclo[3.2.1]oct.3-endo-yl]-2-(pyrrolidin-3-ylamino)benzene-1,4-dicarboxamide] | < 500 |
| NC(=O)c1ccc(C(=O)N[C@H]2C[C@H]3CC[C@@H](C2)N3c2ccc(C(=O)CCC3CCCCC3)cn2)cc1NCC1CC1 [N4-{8-[5-(3-cyclohexylpropanoyl)pyridin-2-yl]-8-azabicyclo[3.2.1]oct-3-endo-yl}-2-[(cyclopropylmethyl)amino]benzene-1,4-dicarboxamide] | 1000 to 2000 |
